# Measured values taken from patent publication EP0726263A2, “Herbicidal (1,3,4)oxadiazoles and thiadiazoles” (American Cyanamid Company, priority 1995, dated 1996).
# What was measured:
# Type in all cases: in vivo
# [1] = system: Abutilon theophrasti; assay: Herbicidal activity, preemergence test; settings: pre; sprayed onto soil, 800 g of active material per hectare; evaluated 3 weeks after treatment
# In short: (§1)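 Acetone/TRITON X-155 formulation diluted in water, sprayed onto horticultural loam soon after sowing at 800 g active material per hectare in 900 litres per hectare. Visual 0-9 rating of stand, vigor, malformation, size and chlorosis versus untreated sown soil, scored 3 weeks after treatment.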
# [2] = system: Alopecurus myosuroides; assay: Herbicidal activity, preemergence test; settings: pre; sprayed onto soil, 800 g of active material per hectare; evaluated 3 weeks after treatment
# In short: as §1
# [3] = system: Amaranthus retroflexus; assay: Herbicidal activity, preemergence test; settings: pre; sprayed onto soil, 800 g of active material per hectare; evaluated 3 weeks after treatment
# In short: as §1
# [4] = system: Ambrosia artemisifolia; assay: Herbicidal activity, preemergence test; settings: pre; sprayed onto soil, 800 g of active material per hectare; evaluated 3 weeks after treatment
# In short: as §1
# [5] = system: Chenopodium album; assay: Herbicidal activity, preemergence test; settings: pre; sprayed onto soil, 800 g of active material per hectare; evaluated 3 weeks after treatment
# In short: as §1
# [6] = system: Galium aparine; assay: Herbicidal activity, preemergence test; settings: pre; sprayed onto soil, 800 g of active material per hectare; evaluated 3 weeks after treatment
# In short: as §1
# [7] = system: Glycine max; assay: Herbicidal activity, preemergence test; settings: pre; sprayed onto soil, 800 g of active material per hectare; evaluated 3 weeks after treatment
# In short: as §1
# [8] = system: Gossypium hirsutum; assay: Herbicidal activity, preemergence test; settings: pre; sprayed onto soil, 800 g of active material per hectare; evaluated 3 weeks after treatment
# In short: as §1
# [9] = system: Hordeum vulgare; assay: Herbicidal activity, preemergence test; settings: pre; sprayed onto soil, 800 g of active material per hectare; evaluated 3 weeks after treatment
# In short: as §1
# [10] = system: Ipomoea hederacea; assay: Herbicidal activity, preemergence test; settings: pre; sprayed onto soil, 800 g of active material per hectare; evaluated 3 weeks after treatment
# In short: as §1
# [11] = system: Lamium purpureum; assay: Herbicidal activity, preemergence test; settings: pre; sprayed onto soil, 800 g of active material per hectare; evaluated 3 weeks after treatment
# In short: as §1
# [12] = system: Matricaria inodora; assay: Herbicidal activity, preemergence test; settings: pre; sprayed onto soil, 800 g of active material per hectare; evaluated 3 weeks after treatment
# In short: as §1
# [13] = system: Papaver rhoeas; assay: Herbicidal activity, preemergence test; settings: pre; sprayed onto soil, 800 g of active material per hectare; evaluated 3 weeks after treatment
# In short: as §1
# [14] = system: Setaria viridis; assay: Herbicidal activity, preemergence test; settings: pre; sprayed onto soil, 800 g of active material per hectare; evaluated 3 weeks after treatment
# In short: as §1
# [15] = system: Stellaria media; assay: Herbicidal activity, preemergence test; settings: pre; sprayed onto soil, 800 g of active material per hectare; evaluated 3 weeks after treatment
# In short: as §1
# [16] = system: Triticum aestivum; assay: Herbicidal activity, preemergence test; settings: pre; sprayed onto soil, 800 g of active material per hectare; evaluated 3 weeks after treatment
# In short: as §1
# [17] = system: Veronica persica; assay: Herbicidal activity, preemergence test; settings: pre; sprayed onto soil, 800 g of active material per hectare; evaluated 3 weeks after treatment
# In short: as §1
# [18] = system: Zea mays; assay: Herbicidal activity, preemergence test; settings: pre; sprayed onto soil, 800 g of active material per hectare; evaluated 3 weeks after treatment
# In short: as §1
# [19] = system: Abutilon theophrasti; assay: Herbicidal activity, postemergence test; settings: post; sprayed onto seedling plants, 800 g of active material per hectare; evaluated 2 weeks after treatment
# In short: (§2)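 Spray dose 800 g a.i./ha in 900 L/ha; acetone stock with 0.4% Triton X-155, water-diluted. Pre: sown loam soil, read at 3 wk. Post: seedling plants, read at 2 wk. Visual 0-9 rating vs untreated.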
# [20] = system: Alopecurus myosuroides; assay: Herbicidal activity, postemergence test; settings: post; sprayed onto seedling plants, 800 g of active material per hectare; evaluated 2 weeks after treatment
# In short: as §2
# [21] = system: Amaranthus retroflexus; assay: Herbicidal activity, postemergence test; settings: post; sprayed onto seedling plants, 800 g of active material per hectare; evaluated 2 weeks after treatment
# In short: as §2
# [22] = system: Ambrosia artemisifolia; assay: Herbicidal activity, postemergence test; settings: post; sprayed onto seedling plants, 800 g of active material per hectare; evaluated 2 weeks after treatment
# In short: as §2
# [23] = system: Chenopodium album; assay: Herbicidal activity, postemergence test; settings: post; sprayed onto seedling plants, 800 g of active material per hectare; evaluated 2 weeks after treatment
# In short: as §2
# [24] = system: Galium aparine; assay: Herbicidal activity, postemergence test; settings: post; sprayed onto seedling plants, 800 g of active material per hectare; evaluated 2 weeks after treatment
# In short: as §2
# [25] = system: Glycine max; assay: Herbicidal activity, postemergence test; settings: post; sprayed onto seedling plants, 800 g of active material per hectare; evaluated 2 weeks after treatment
# In short: as §2
# [26] = system: Gossypium hirsutum; assay: Herbicidal activity, postemergence test; settings: post; sprayed onto seedling plants, 800 g of active material per hectare; evaluated 2 weeks after treatment
# In short: as §2
# [27] = system: Hordeum vulgare; assay: Herbicidal activity, postemergence test; settings: post; sprayed onto seedling plants, 800 g of active material per hectare; evaluated 2 weeks after treatment
# In short: as §2
# [28] = system: Ipomoea hederacea; assay: Herbicidal activity, postemergence test; settings: post; sprayed onto seedling plants, 800 g of active material per hectare; evaluated 2 weeks after treatment
# In short: as §2
# [29] = system: Lamium purpureum; assay: Herbicidal activity, postemergence test; settings: post; sprayed onto seedling plants, 800 g of active material per hectare; evaluated 2 weeks after treatment
# In short: as §2
# [30] = system: Matricaria inodora; assay: Herbicidal activity, postemergence test; settings: post; sprayed onto seedling plants, 800 g of active material per hectare; evaluated 2 weeks after treatment
# In short: as §2
# [31] = system: Papaver rhoeas; assay: Herbicidal activity, postemergence test; settings: post; sprayed onto seedling plants, 800 g of active material per hectare; evaluated 2 weeks after treatment
# In short: as §2
# [32] = system: Setaria viridis; assay: Herbicidal activity, postemergence test; settings: post; sprayed onto seedling plants, 800 g of active material per hectare; evaluated 2 weeks after treatment
# In short: as §2
# [33] = system: Stellaria media; assay: Herbicidal activity, postemergence test; settings: post; sprayed onto seedling plants, 800 g of active material per hectare; evaluated 2 weeks after treatment
# In short: as §2
# [34] = system: Triticum aestivum; assay: Herbicidal activity, postemergence test; settings: post; sprayed onto seedling plants, 800 g of active material per hectare; evaluated 2 weeks after treatment
# In short: as §2
# [35] = system: Veronica persica; assay: Herbicidal activity, postemergence test; settings: post; sprayed onto seedling plants, 800 g of active material per hectare; evaluated 2 weeks after treatment
# In short: as §2
# [36] = system: Zea mays; assay: Herbicidal activity, postemergence test; settings: post; sprayed onto seedling plants, 800 g of active material per hectare; evaluated 2 weeks after treatment
# In short: as §2
Compound,ABUTH control rating (0-9) [1],ALOMY control rating (0-9) [2],AMARE control rating (0-9) [3],AMBEL control rating (0-9) [4],CHEAL control rating (0-9) [5],GALAP control rating (0-9) [6],GLXMA control rating (0-9) [7],GOSHI control rating (0-9) [8],HORVW control rating (0-9) [9],IPOHE control rating (0-9) [10],LAMPU control rating (0-9) [11],MATIN control rating (0-9) [12],PAPRH control rating (0-9) [13],SETVI control rating (0-9) [14],STEME control rating (0-9) [15],TRZAW control rating (0-9) [16],VERPE control rating (0-9) [17],ZEAMX control rating (0-9) [18],ABUTH control rating (0-9) [19],ALOMY control rating (0-9) [20],also measured
C[C@H](NC(=O)c1nnc(-c2ccc(F)cc2)o1)c1ccccc1 [Example 7],8 (approaching complete kill),4 (injury),9 (complete kill),0 (no effect),8 (approaching complete kill),1 (trace effect),1 (trace effect),0 (no effect),0 (no effect),0 (no effect),9 (complete kill),9 (complete kill),9 (complete kill),9 (complete kill),9 (complete kill),0 (no effect),9 (complete kill),0 (no effect),9 (complete kill),5 (definite injury),AMARE control rating (0-9) [21]: 9 (complete kill); AMBEL control rating (0-9) [22]: 8 (approaching complete kill); CHEAL control rating (0-9) [23]: 9 (complete kill); GALAP control rating (0-9) [24]: 7 (good herbicidal effect); GLXMA control rating (0-9) [25]: 8 (approaching complete kill); GOSHI control rating (0-9) [26]: 9 (complete kill); HORVW control rating (0-9) [27]: 5 (definite injury); IPOHE control rating (0-9) [28]: 9 (complete kill); LAMPU control rating (0-9) [29]: 9 (complete kill); MATIN control rating (0-9) [30]: 9 (complete kill); PAPRH control rating (0-9) [31]: 9 (complete kill); SETVI control rating (0-9) [32]: 9 (complete kill); STEME control rating (0-9) [33]: 9 (complete kill); TRZAW control rating (0-9) [34]: 4 (injury); VERPE control rating (0-9) [35]: 9 (complete kill); ZEAMX control rating (0-9) [36]: 2 (slight effect)
C[C@H](NC(=O)c1nnc(-c2ccc(Cl)c(Cl)c2)o1)c1ccccc1 [Example 27],0 (no effect),0 (no effect),0 (no effect),0 (no effect),0 (no effect),0 (no effect),0 (no effect),0 (no effect),0 (no effect),0 (no effect),0 (no effect),0 (no effect),3 (moderate effect),0 (no effect),0 (no effect),0 (no effect),3 (moderate effect),0 (no effect),0 (no effect),0 (no effect),AMARE control rating (0-9) [21]: 5 (definite injury); AMBEL control rating (0-9) [22]: 0 (no effect); CHEAL control rating (0-9) [23]: 6 (herbicidal effect); GALAP control rating (0-9) [24]: 0 (no effect); GLXMA control rating (0-9) [25]: 2 (slight effect); GOSHI control rating (0-9) [26]: 2 (slight effect); HORVW control rating (0-9) [27]: 0 (no effect); IPOHE control rating (0-9) [28]: 0 (no effect); LAMPU control rating (0-9) [29]: 4 (injury); MATIN control rating (0-9) [30]: 0 (no effect); PAPRH control rating (0-9) [31]: 2 (slight effect); SETVI control rating (0-9) [32]: 0 (no effect); STEME control rating (0-9) [33]: 0 (no effect); TRZAW control rating (0-9) [34]: 0 (no effect); VERPE control rating (0-9) [35]: 0 (no effect); ZEAMX control rating (0-9) [36]: 0 (no effect)
C[C@H](NC(=O)c1nnc(-c2cc(Cl)cc(Cl)c2)o1)c1ccccc1 [Example 28],0 (no effect),0 (no effect),0 (no effect),0 (no effect),0 (no effect),0 (no effect),0 (no effect),0 (no effect),0 (no effect),0 (no effect),0 (no effect),0 (no effect),0 (no effect),0 (no effect),0 (no effect),0 (no effect),0 (no effect),0 (no effect),0 (no effect),0 (no effect),AMARE control rating (0-9) [21]: 0 (no effect); AMBEL control rating (0-9) [22]: 0 (no effect); CHEAL control rating (0-9) [23]: 2 (slight effect); GALAP control rating (0-9) [24]: 0 (no effect); GLXMA control rating (0-9) [25]: 2 (slight effect); GOSHI control rating (0-9) [26]: 0 (no effect); HORVW control rating (0-9) [27]: 0 (no effect); IPOHE control rating (0-9) [28]: 0 (no effect); LAMPU control rating (0-9) [29]: 0 (no effect); MATIN control rating (0-9) [30]: 0 (no effect); PAPRH control rating (0-9) [31]: 0 (no effect); SETVI control rating (0-9) [32]: 0 (no effect); STEME control rating (0-9) [33]: 0 (no effect); TRZAW control rating (0-9) [34]: 0 (no effect); VERPE control rating (0-9) [35]: 0 (no effect); ZEAMX control rating (0-9) [36]: 0 (no effect)
